# From article PMC10707221, “A Novel Lipase from Streptomyces exfoliatus DSMZ 41693 for Biotechnological Applications” (International Journal of Molecular Sciences, 2023)
# Test system: T1, SeLipC
# T1 construct: gene lipC; Full gene with native signal peptide (33 aa) expressed in Rhodococcus sp; T104 (pENV19), secreted; purified on phenyl sepharose; The printed nt borders (870 nt) give about 289 codons, not 33 + 259
# Experiment: colorimetric p-nitrophenol release at […] nm, nonlinear hyperbolic fit
# Assay type: biochemical, Streptomyces exfoliatus
# Details: 50 mM Tris/HCl pH 8.0, 37 °C; pNPP 10-800 µM; standard assay with isopropanol, gum arabic and sodium deoxycholate
compound,measurement,value
"CCCCCCCCCCCCCCCC(=O)Oc1ccc([N+](=O)[O-])cc1 [pNPP, p-nitrophenyl palmitate]",Km,49.6 ± 11.2 µM
